Activity calls are given as the source filed them. No cut-off for these calls is given here.
Tests used:
[1] = Cytotoxicity against MDCK cells; format: toxicity, cell-based, Canis lupus familiaris; settings: dog
Influenza A virus [2] = assay: Antiviral activity against influenza A virus H1N1 infected in MDCK cells; format: functional, organism-based
[3] = Selectivity index, ratio of CC50 for MDCK cells to IC50 for influenza A virus infected in MDCK cells; format: toxicity, cell-based; settings: dog, read-out: Ratio CC50/IC50
[4] = AUC (0 to infinity) in Balb/c mouse at 25 mg/kg, po administered as single dose; format: ADME, organism-based; parameters: dose 25 mg/kg, route po; settings: in vivo
[5] = Tmax in Balb/c mouse at 25 mg/kg, po administered as single dose; format: ADME, organism-based; settings: in vivo
[6] = Elimination half life in Balb/c mouse at 25 mg/kg, po administered as single dose; format: ADME, organism-based; settings: in vivo, read-out: beta t1/2 (converted)
[7] = Cmax in Balb/c mouse at 25 mg/kg, po administered as single dose; format: ADME, organism-based; parameters: dose 25 mg/kg, route po; settings: in vivo
Influenza A virus [8] = assay: Antiviral activity against Influenza A virus H3N2 subtype; format: functional, organism-based
[9] = tested on: Infectious bronchitis virus; assay: Antiviral activity against Infectious bronchitis virus; format: functional, organism-based
Influenza A virus [10] = assay: Antiviral activity against influenza A virus H1N1 A/Puerto Rico/8/1934 infected in Kunming mouse assessed as survival rate at 15 mg/kg, po administered with compound twice daily for 7 days followed by viral infection on day 2 and measured for 14 days relative to control; format: functional; settings: H1N1 A/Puerto Rico/8/1934, 336 h, time 14 day
hERG (KCNH2) = hERG (KCNH2) (Homo sapiens, UniProt Q12809); assay: Inhibition of hERG at 10 uM relative to control; format: toxicity
Chain of hERG (KCNH2) (Q12809 whole entry): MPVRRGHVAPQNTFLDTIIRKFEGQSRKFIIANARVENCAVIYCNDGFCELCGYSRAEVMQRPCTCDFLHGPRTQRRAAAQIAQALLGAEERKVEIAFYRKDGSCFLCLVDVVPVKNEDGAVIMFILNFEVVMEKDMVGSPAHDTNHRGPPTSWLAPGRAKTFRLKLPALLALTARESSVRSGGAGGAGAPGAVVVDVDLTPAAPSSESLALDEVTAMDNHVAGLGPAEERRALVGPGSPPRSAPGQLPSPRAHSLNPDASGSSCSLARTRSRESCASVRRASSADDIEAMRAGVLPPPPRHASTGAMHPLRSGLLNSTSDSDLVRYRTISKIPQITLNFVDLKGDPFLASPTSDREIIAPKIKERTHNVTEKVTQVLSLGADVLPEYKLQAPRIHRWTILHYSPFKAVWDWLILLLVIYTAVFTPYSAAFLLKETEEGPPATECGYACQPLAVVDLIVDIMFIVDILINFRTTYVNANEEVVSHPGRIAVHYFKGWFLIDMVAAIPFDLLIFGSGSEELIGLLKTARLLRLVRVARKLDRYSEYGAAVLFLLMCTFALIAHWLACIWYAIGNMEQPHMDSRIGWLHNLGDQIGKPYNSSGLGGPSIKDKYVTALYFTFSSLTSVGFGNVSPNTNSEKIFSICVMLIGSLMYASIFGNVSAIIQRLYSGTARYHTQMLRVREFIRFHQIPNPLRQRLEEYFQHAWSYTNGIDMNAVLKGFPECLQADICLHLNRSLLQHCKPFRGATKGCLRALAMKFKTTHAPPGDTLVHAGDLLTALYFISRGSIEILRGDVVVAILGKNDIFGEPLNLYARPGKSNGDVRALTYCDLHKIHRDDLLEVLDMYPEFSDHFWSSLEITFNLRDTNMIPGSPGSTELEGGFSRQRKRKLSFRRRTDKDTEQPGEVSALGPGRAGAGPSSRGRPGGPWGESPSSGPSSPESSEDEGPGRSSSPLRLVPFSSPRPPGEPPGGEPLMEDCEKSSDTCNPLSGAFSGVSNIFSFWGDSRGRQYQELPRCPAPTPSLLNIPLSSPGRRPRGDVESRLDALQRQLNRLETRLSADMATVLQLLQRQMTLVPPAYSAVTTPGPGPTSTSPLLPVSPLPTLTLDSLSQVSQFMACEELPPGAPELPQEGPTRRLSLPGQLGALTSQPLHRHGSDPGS

| Compound | CC50 [1] [nM] | IC50 (Influenza A virus [2]) [nM] | selectivity ratio [3] | further results |
| --- | --- | --- | --- | --- |
| CC(=O)Nc1ccc2oc(-c3ccnc(C(=O)N4CCN(C(c5ccc(F)cc5)c5nnn(C6CC6)n5)CC4)c3)nc2c1 (stereo not drawn) | > 50000 | 1190 | – | – |
| CCC(CC)n1nnc([C@H](c2ccc(F)cc2)N2CCN(C(=O)c3cc(-c4nc5cc(NC(C)=O)ccc5o4)ccn3)CC2)n1 | > 100000 | 400 | > 250 | – |
| CCCC(=O)Nc1ccc2oc(-c3ccnc(C(=O)N4CCN(C(c5ccc(F)cc5)c5nnn(C)n5)CC4)c3)nc2c1 (stereo not drawn) | > 50000 | 630 | – | – |
| CC(=O)Nc1ccc2oc(-c3ccnc(C(=O)N4CCN(C(c5ccc(F)cc5)c5nnn(CCC6CCCCC6)n5)CC4)c3)nc2c1 (stereo not drawn) | > 50000 | 820 | – | – |
| CC(=O)Nc1ccc2oc(-c3ccnc(C(=O)N4CCN([C@H](c5ccc(F)cc5)c5nnn(C6CCCC6)n5)CC4)c3)nc2c1 | 87200 | 110 | 792 | AUC(0-inf) [4]: 692 ng·h/mL; Tmax [5]: 15 min; half-life [6]: 26.5 min; Cmax [7]: 992 ng/mL |
| CCn1nnc(C(c2ccc(F)cc2)N2CCN(C(=O)c3cc(-c4nc5cc(NC(C)=O)ccc5o4)ccn3)CC2)n1 (stereo not drawn) | > 50000 | 630 | – | – |
| C=Cn1nnc(C(c2ccc(F)cc2)N2CCN(C(=O)c3cc(-c4nc5cc(NC(C)=O)ccc5o4)ccn3)CC2)n1 (stereo not drawn) | > 50000 | 270 | – | – |
| CCCn1nnc(C(c2ccc(F)cc2)N2CCN(C(=O)c3cc(-c4nc5cc(NC(C)=O)ccc5o4)ccn3)CC2)n1 (stereo not drawn) | > 50000 | 630 | – | – |
| CCC(CC)n1nnc([C@@H](c2ccc(F)cc2)N2CCN(C(=O)c3cc(-c4nc5cc(NC(C)=O)ccc5o4)ccn3)CC2)n1 | > 100000 | 90 | > 1110 | – |
| CC(=O)Nc1ccc2oc(-c3ccnc(C(=O)N4CCN(C(c5ccc(F)cc5)c5nnn(C6CCCC6)n5)CC4)c3)nc2c1 (stereo not drawn) | > 50000 | 260 | – | – |
| CC(=O)Nc1ccc2oc(-c3ccnc(C(=O)N4CCN(C(c5ccccc5)c5nnnn5C(C)C)CC4)c3)nc2c1 (stereo not drawn) | > 50000 | > 15000 | – | – |
| CCCCn1nnc([C@H](c2ccc(F)cc2)N2CCN(C(=O)c3cc(-c4nc5cc(NC(C)=O)ccc5o4)ccn3)CC2)n1 | > 100000 | 1200 | > 83 | – |
| CCC(=O)Nc1ccc2oc(-c3ccnc(C(=O)N4CCN(C(c5ccc(F)cc5)c5nnn(C)n5)CC4)c3)nc2c1 (stereo not drawn) | > 50000 | 450 | – | – |
| CC(=O)Nc1ccc2oc(-c3ccnc(C(=O)N4CCN(C(c5ccc(F)cc5)c5nnn(C6CCCCC6)n5)CC4)c3)nc2c1 (stereo not drawn) | > 50000 | 270 | – | – |
| CC(=O)Nc1ccc2oc(-c3ccnc(C(=O)N4CCN(C(c5ccc(F)cc5)c5nnn(CC6CCCCC6)n5)CC4)c3)nc2c1 (stereo not drawn) | 38500 | 360 | – | – |
| CC(=O)Nc1ccc2oc(-c3ccnc(C(=O)N4CCN(C(c5ccc(F)cc5)c5nnn(C)n5)CC4)c3)nc2c1 (stereo not drawn) | – | – | – | Activity (Influenza A virus [8]): inactive; Activity [9]: inactive |
| CCC(CC)n1nnc(C(c2ccc(F)cc2)N2CCN(C(=O)c3cc(-c4nc5cc(NC(C)=O)ccc5o4)ccn3)CC2)n1 (stereo not drawn) | > 50000 | 360 | – | – |
| C=Cn1nnc([C@H](c2ccc(F)cc2)N2CCN(C(=O)c3cc(-c4nc5cc(NC(C)=O)ccc5o4)ccn3)CC2)n1 | > 100000 | 2930 | > 34 | – |
| CC(=O)Nc1ccc2oc(-c3ccnc(C(=O)N4CCN([C@H](c5ccc(F)cc5)c5nnn(CCC(C)C)n5)CC4)c3)nc2c1 | > 100000 | 260 | > 384 | – |
| CC(=O)Nc1ccc2oc(-c3ccnc(C(=O)N4CCN(C(c5ccc(F)cc5)c5nnn(C6CCOCC6)n5)CC4)c3)nc2c1 (stereo not drawn) | > 50000 | 1080 | – | – |
| Cn1nnc(C(c2ccc(F)cc2)N2CCN(C(=O)c3cc(-c4nc5cc(NC(=O)C6CCCC6)ccc5o4)ccn3)CC2)n1 (stereo not drawn) | 5140 | 630 | – | – |

| Compound | CC50 [1] [nM] | IC50 (Influenza A virus [2]) [nM] | selectivity ratio [3] | further results |
| --- | --- | --- | --- | --- |
| CC(=O)Nc1ccc2oc(-c3ccnc(C(=O)N4CCN([C@H](c5ccc(F)cc5)c5nnn(C(C)C)n5)CC4)c3)nc2c1 | > 100000 | 30 | > 3330 | AUC(0-inf) [4]: 2980 ng·h/mL; Tmax [5]: 15 min; half-life [6]: 75 min; Cmax [7]: 3770 ng/mL; survival at 15 mg/kg (Influenza A virus [10]): 80%; inhibition at 10 µM (hERG (KCNH2)): 27.1% |
| CC(=O)Nc1ccc2sc(-c3ccnc(C(=O)N4CCN(C(c5ccccc5)c5nnnn5C(C)C)CC4)c3)nc2c1 (stereo not drawn) | 38500 | > 15000 | – | – |
| CCC(CC)C(=O)Nc1ccc2oc(-c3ccnc(C(=O)N4CCN(C(c5ccc(F)cc5)c5nnn(C)n5)CC4)c3)nc2c1 (stereo not drawn) | 28600 | 360 | – | – |
| Cn1nnc(C(c2ccc(F)cc2)N2CCN(C(=O)c3cc(-c4nc5cc(NC(=O)C(C)(C)C)ccc5o4)ccn3)CC2)n1 (stereo not drawn) | 12800 | 350 | – | – |
| CC(=O)Nc1ccc2oc(-c3ccnc(C(=O)N4CCN([C@@H](c5ccc(F)cc5)c5nnn(CCC(C)C)n5)CC4)c3)nc2c1 | > 100000 | 2510 | > 39 | – |
| CCCCn1nnc(C(c2ccc(F)cc2)N2CCN(C(=O)c3cc(-c4nc5cc(NC(C)=O)ccc5o4)ccn3)CC2)n1 (stereo not drawn) | > 50000 | 380 | – | – |
| C=Cn1nnc([C@@H](c2ccc(F)cc2)N2CCN(C(=O)c3cc(-c4nc5cc(NC(C)=O)ccc5o4)ccn3)CC2)n1 | > 100000 | 30 | > 3330 | AUC(0-inf) [4]: 2100 ng·h/mL; Tmax [5]: 15 min; half-life [6]: 94.2 min; Cmax [7]: 2130 ng/mL; inhibition at 10 µM (hERG (KCNH2)): 36.4% |
| CC(=O)Nc1ccc2oc(-c3ccnc(C(=O)N4CCN(C(c5ccccc5)c5nnn(C(C)C)n5)CC4)c3)nc2c1 (stereo not drawn) | > 50000 | 150 | – | – |
| CC(=O)Nc1ccc2oc(-c3ccnc(C(=O)N4CCN(C(c5ccc(F)cc5)c5nnn(C(C)C)n5)CC4)c3)nc2c1 (stereo not drawn) | > 50000 | 220 | – | – |
| CC(=O)Nc1ccc2oc(-c3ccnc(C(=O)N4CCN([C@H](c5ccccc5)c5nnn(C(C)C)n5)CC4)c3)nc2c1 | > 100000 | 100 | > 1000 | – |
| CC(=O)Nc1ccc2oc(-c3ccnc(C(=O)N4CCN([C@@H](c5ccc(F)cc5)c5nnn(C(C)C)n5)CC4)c3)nc2c1 | > 100000 | 2560 | > 39 | – |
| CC(=O)Nc1ccc2oc(-c3ccnc(C(=O)N4CCN(C(c5ccc(F)cc5)c5nnn(CCC(C)C)n5)CC4)c3)nc2c1 (stereo not drawn) | > 50000 | 350 | – | – |
| CC(=O)Nc1ccc2sc(-c3ccnc(C(=O)N4CCN(C(c5ccccc5)c5nnn(C(C)C)n5)CC4)c3)nc2c1 (stereo not drawn) | > 50000 | 1430 | – | – |
| CC(=O)Nc1ccc2oc(-c3ccnc(C(=O)N4CCN([C@@H](c5ccccc5)c5nnn(C(C)C)n5)CC4)c3)nc2c1 | > 100000 | 830 | > 120 | – |
| Cn1nnc(C(c2ccc(F)cc2)N2CCN(C(=O)c3cc(-c4nc5cc(NC(=O)c6ccccc6)ccc5o4)ccn3)CC2)n1 (stereo not drawn) | 10700 | 630 | – | – |
| Cn1nnc(C(c2ccc(F)cc2)N2CCN(C(=O)c3cc(-c4nc5cc(NC(=O)c6ccco6)ccc5o4)ccn3)CC2)n1 (stereo not drawn) | 12800 | 220 | – | – |
| COCCn1nnc(C(c2ccc(F)cc2)N2CCN(C(=O)c3cc(-c4nc5cc(NC(C)=O)ccc5o4)ccn3)CC2)n1 (stereo not drawn) | > 50000 | 2470 | – | – |
| CC(=O)Nc1ccc2oc(-c3ccnc(C(=O)N4CCN([C@@H](c5ccc(F)cc5)c5nnn(C6CCCC6)n5)CC4)c3)nc2c1 | 96200 | 510 | 188 | – |
| Cn1nnc(C(c2ccc(F)cc2)N2CCN(C(=O)c3cc(-c4nc5cc(NC(=O)C6CCCO6)ccc5o4)ccn3)CC2)n1 (stereo not drawn) | > 50000 | 820 | – | – |
| CCCCn1nnc([C@@H](c2ccc(F)cc2)N2CCN(C(=O)c3cc(-c4nc5cc(NC(C)=O)ccc5o4)ccn3)CC2)n1 | > 100000 | 140 | > 714 | – |
| Cn1nnc(C(c2ccc(F)cc2)N2CCN(C(=O)c3cc(-c4nc5cc(NC(=O)C6CCCCC6)ccc5o4)ccn3)CC2)n1 (stereo not drawn) | 1430 | 820 | – | – |
